Source: patent publication US5055613A, “Metabolites of pentanedioic acid derivatives” (G. D. Searle & Co., priority 1988, dated 1991)

Assays:
[1] = test system: fed hepatocytes; experiment: Glucose release, lactate and pyruvate (metabolites) in isolated fed hepatocytes; assay type: cell-based, rat; conditions: 0.5 mM; for Pyruvate: No Addition 0.186 ± 0.040; for Lactate: No Addition 0.317 ± 0.095
Experimental: (§1) Hepatocytes are prepared from ad lib fed rats or 8-hour fasted rats by the method of Berry and Friend (1969) with minor modifications (McCune and Harris, 1979 J. Biol. Chem. 254,10095-10101.) Lean female rats (200-300 g) are ad lib fed and on a 8:00 a.m.-8:00 p.m. light cycle. The cells are isolated between 9:00-10:00 a.m., to compensate for any diurnal rhythms such as glycogen depletion.
(§2) The cells are suspended in 2 mls of Krebs-Henseleit buffer supplemented with 2% BSA (essentially fatty acid free and dialyzed) under an atmosphere of 95% O2, 5% CO2 in stoppered 25 ml Erlenmeyer flasks. Incubations were conducted in a shaking water bath at 37° C. for appropriate times. Cells for fatty acid and cholesterol synthesis were treated with […] of H2 O(10mCi/ml) after 30 minutes of pre-incubation and stopped at 60 minutes.
Assay of metabolites: Cells are terminated with HClO4 (0.1 ml of 60%) and treated as described previously; McCune et al., 1981 Methods of Enzymology 72, 557-559). The metabolites in the extracts are measured spectrophotometrically by enzymatic methods, according to the methods of Hohorst et al. (1959 Biochem. Z., 332,18-46) for pyruvate and lactate, Williamson et al. (1962) for acetoacetate and beta-hydroxybutyrate, Slein (1965) for glucose, Michal and Bergmeyer (1974) for acetyl-CoA, McCune, et al. (ibid) for glycogen, Mollering and Gruber (1966 Anal. Biochem. 17, 369-379) for citrate, and Lambrecht and Trautschold (1974 Methods of Enzymatic Analysis, 2101 2109) for ATP.
(§3) Various compounds of the present invention were added to various concentrations to the hepatocytes and incubated for a short period of time. The effect of the compound was evaluated on cholesterol, fatty acid and glucose synthesis as well on other metabolites in the cell.

[2] = test system: fed hepatocytes; experiment: Fatty acid and cholesterol synthesis in isolated fed hepatocytes; assay type: cell-based, rat; conditions: 0.5 mM; for Cholesterol Synthesis: No Addition 0.013 ± 0.002; for Fatty Acid Synthesis: No Addition 0.024 ± 0.004
Experimental: as §1, §2
Determination of cholesterol and fatty acid synthesis: The rate of fatty acid synthesis and cholesterol synthesis, expressed as moles of acetate equivalents/g wet weight of hepatocytes are determined by the incorporation of H2 O into total lipid, and extracted by the methods of Kates (1972 Tech. of Lipidology, 349, 363) and Harris (1975 Arch. Biochem. Biophys. 169, 168-180). Calculations are done according to Jungas (1968 Biochemistry 7, 3708-3717).
as §3

Compound | Pyruvate [1] | Lactate [1] | Cholesterol Synthesis [2] [mmoles/min/gm wet weight] | Fatty Acid Synthesis [2] [mmoles/min/gm wet weight]
COC(=O)C(C)(C)CCCCCCCCCCCC(O)(CC(=O)O)CC(=O)O [Example 10, 3-(12-Carbomethoxy-12-methyl-tridecyl)-3-hydroxy glutaric acid] | 0.220 ± 0.031 mmoles/ml incubation medium | 0.477 ± 0.084 mmoles/ml incubation medium | 0.003 ± 0.001 | 0.003 ± 0.001
CC(C)(CCCCCCCCCCCC(O)(CC(=O)O)CC(=O)O)C(=O)O [Example 11, 3-(12-Carboxy-12-methyl-tridecyl)-3-hydroxy glutaric acid] | 0.202 ± 0.028 mmoles/ml incubation medium | 0.437 ± 0.104 mmoles/ml incubation medium | 0.002 ± 0.001 | 0.003 ± 0.001
CC(C)(CO)CCCCCCCCCCCC(O)(CC(=O)O)CC(=O)O [Example 14, 3-(13-Hydroxy-12,12-dimethyl-tridecyl)-3-hydroxy glutaric acid] | 0.185 ± 0.042 mmoles/ml incubation medium | 0.400 ± 0.091 mmoles/ml incubation medium | 0.004 ± 0.001 | 0.003 ± 0.001
CC(C)(C)CCCCCCCCCCCC(O)(CC(=O)O)CC(=O)O [Prior Art Compound, 3hydroxy-3-[12,12dimethyltridecyl]glutaric acid, reference compound] | 0.110 ± 0.013 mmoles/ml incubation medium | 0.383 ± 0.085 mmoles/ml incubation medium | 0.010 ± 0.002 | 0.010 ± 0.002
